Converted amounts (≈) assume the structure as drawn.

For the series the following is noted: buffer; pH 7.4; 200.0 µM.
In general, solubility (kinetic) refers to the concentration staying in solution when a stock, usually in DMSO, is diluted into the medium. `OCCNC(=S)NCc1ccccc1` showed a kinetic solubility of 31.5 µg/mL (≈ 150 µM). Consider `COc1ccc(C(=O)COC(=O)C2CCC(=O)N2)cc1` (configuration not stated), for which the solubility (kinetic) was greater than 41.6 µg/mL. The same measure for `NCCc1c(C(=O)O)[nH]c2ccc([N+](=O)[O-])cc12`: 35.4 µg/mL (≈ 142 µM); for `O=C(c1ccccc1)N1CCN(C(=O)C2CC2)CC1`: 38.2 µg/mL (≈ 148 µM); for `CCOc1ccccc1NC(=O)N1CCCc2ccccc21`: less than 0.3 µg/mL. `COc1ccc(S(=O)(=O)/C(C#N)=C/Nc2ccccc2F)cc1`: the solubility (kinetic) came out at 3.3 µg/mL (≈ 9.93 µM).

For `Cc1ccc(S(=O)(=O)Nc2ccccc2C(=O)N2CCOCC2)cc1`, the solubility (kinetic) is greater than 54.1 µg/mL. As to `COc1ccc(CC(=O)Nc2ccc(N(C)C)c3ccccc23)cc1`, the solubility (kinetic) came to 7.6 µg/mL (≈ 22.7 µM). Regarding `CC1CCc2c(sc(NC(=O)c3cccn3C)c2C(N)=O)C1` (configuration not stated), the solubility (kinetic) was 2.9 µg/mL (≈ 9.14 µM). `O=C(Nc1ccc(Cl)cc1F)C1CC(=O)N(Cc2ccco2)C1` (configuration not stated) showed a solubility (kinetic) greater than 50.5 µg/mL. Molecule `CC(=O)c1c(O)c2ccccc2n(C)c1=O` came in with a solubility (kinetic) of 27.3 µg/mL (≈ 126 µM). Turning to `COc1ccccc1NC(=S)NC(NC(C)=O)C(Cl)(Cl)Cl` (configuration not stated), the kinetic solubility was found to be 19 µg/mL (≈ 51.3 µM). Under `COc1cc(SC)ccc1C(=O)Nc1ccc(C)cc1` stands 1.6 µg/mL (≈ 5.57 µM); under `O=C(Cc1ccccc1[N+](=O)[O-])Nc1ccccc1C(=O)N1CCOCC1`, greater than 55.4 µg/mL. The molecule `Cc1ccc([N+](=O)[O-])cc1S(=O)(=O)Nc1cccc(S(=O)(=O)Nc2ccccc2C(=O)O)c1` showed a kinetic solubility greater than 73.7 µg/mL. `O=C(NCc1ccc2c(c1)OCO2)Nc1ccc2ccccc2c1` showed a kinetic solubility of 1.3 µg/mL (≈ 4.06 µM). The molecule `COc1cccc([C@@]2(O)CCCC[C@@H]2CN(C)C)c1` registered a kinetic solubility greater than 39.5 µg/mL. Molecule `Cn1cc(/C=C2\SC(=O)N(c3ccc(O)cc3)C2=O)c2ccccc21` returned a kinetic solubility of less than 0.4 µg/mL. Under `COc1ccc(CCNC(=S)N(C)C)cc1OC` stands greater than 40.3 µg/mL; under `Cc1ccc(N2CCN(c3ncccc3[N+](=O)[O-])CC2)c(C)c1`, 1.4 µg/mL (≈ 4.48 µM). `C/C(Cl)=C/Cn1c(N2CCCC2)nc2c1c(=O)[nH]c(=O)n2C`: the kinetic solubility came to 45 µg/mL (≈ 139 µM). The same measure for `O=C(COC(=O)Cc1ccccc1F)Nc1cccc(F)c1`: greater than 45.8 µg/mL; for `Nc1ccccc1C(=O)NC12CC3CC(CC(C3)C1)C2`: 28.7 µg/mL (≈ 106 µM); for `Cc1ccc(NC(=O)NC2CCCc3ccccc32)cc1` (configuration not stated): less than 0.3 µg/mL. The molecule `Cc1ccc(N=C(N)N=C(N)N)c(C)c1` came in with a kinetic solubility of 28.8 µg/mL (≈ 140 µM). Turning to `Cc1ccccc1CNC(=O)Nc1ccc(Cl)cc1`, the solubility (kinetic) was determined as 0.3 µg/mL (≈ 1.09 µM). `Cc1ccc(-n2c(O)c(C=NCC3CCCO3)c(=O)[nH]c2=O)c(C)c1` (configuration not stated) had a kinetic solubility greater than 51.5 µg/mL. The same measure for `O=C(NCC1CCCCC1)c1cccc(-c2ccc(O)cc2)c1`: less than 0.7 µg/mL; for `Cc1cc(C)cc(OCC(=O)Nc2nc(-c3ccccn3)cs2)c1`: 1.2 µg/mL (≈ 3.54 µM). The same measure for `CC(=O)N1CCN(c2nc3ccc(Br)cc3s2)CC1`: 7.9 µg/mL (≈ 23.2 µM); for `CN(C)c1ncc([N+](=O)[O-])cc1C(F)(F)F`: 5.2 µg/mL (≈ 22.1 µM); for `Clc1cccc(Cl)c1-c1noc(-c2ccno2)n1`: 28.6 µg/mL (≈ 101 µM). Regarding `CCn1cc(S(=O)(=O)Nc2ccc(C)c(Cl)c2)cn1`, the kinetic solubility was greater than 45 µg/mL.

On to `Cc1ccc(C)c(NC(=O)C2COc3ccccc3O2)c1` (configuration not stated), for which the kinetic solubility was 3.5 µg/mL (≈ 12.4 µM). The same measure for `Cc1ccc(N2CC(C(=O)N3CCOCC3)CC2=O)cc1C` (configuration not stated): 34.3 µg/mL (≈ 113 µM); for `Cc1ccc(Nc2c([N+](=O)[O-])ccc3nonc23)c(C)c1`: less than 0.2 µg/mL; for `CCN(CC)C(=N)N1c2ccccc2CCC1C.Cl` (configuration not stated): 40.8 µg/mL. In turn, `Clc1ccc(Nc2ccc3ccccc3n2)cc1` registered a solubility (kinetic) of less than 0.3 µg/mL. `CC(C)(C)C(=O)C1=C(O)C(=O)N(Cc2ccccc2)C1c1ccccc1F` (configuration not stated): the solubility (kinetic) is greater than 55.1 µg/mL.

Turning to `COc1ccc(CNC(=O)c2ccc(Br)cc2)cc1`, the kinetic solubility stood at 4.1 µg/mL (≈ 12.8 µM). The molecule `O=C(NCCCc1ccccc1)c1cccc(Br)c1` had a kinetic solubility of 19 µg/mL (≈ 59.7 µM).

`C[C@H](NC(=O)c1ccco1)C(=O)Nc1ccc(C#N)cc1`: the solubility (kinetic) was greater than 42.5 µg/mL.

`COCCOC(=O)C1=C(C)NC(=O)NC1c1cccc(F)c1` (configuration not stated): the solubility (kinetic) is greater than 46.2 µg/mL. The same measure for `Cc1ccc2nc(SC(C)C(=O)N3CC(C)OC(C)C3)[nH]c2c1` (configuration not stated): 49.4 µg/mL (≈ 148 µM); for `O=C(Nc1ccc(F)cc1)c1cc(-c2ccccc2)no1`: less than 0.3 µg/mL; for `O=C(NC1CCCCCC1)C1CC(=O)N(c2ccc(Cl)cc2)C1` (configuration not stated): 6.3 µg/mL (≈ 18.8 µM). `Cc1ccc(NC(=O)CCc2ccc(S(=O)(=O)N3CCOCC3)cc2)c(Cl)c1`: the kinetic solubility worked out at 6.1 µg/mL (≈ 14.4 µM).

Molecule `O=C(O)c1ccc(-c2ccccc2)[nH]c1=O` gave a kinetic solubility greater than 32.3 µg/mL.

In turn, `N/C(=N\OC(=O)COc1ccc2ccccc2c1)c1ccncc1` had a solubility (kinetic) of 6.2 µg/mL (≈ 19.3 µM). On to `COc1cccc(OCC(=O)NC2CCCCCC2)c1`, for which the solubility (kinetic) is greater than 41.6 µg/mL.

`Cc1noc(NS(=O)(=O)c2ccc(NC(=O)c3ccccc3NS(=O)(=O)c3ccc(F)cc3)cc2)c1C` returned a solubility (kinetic) greater than 81.7 µg/mL. In the case of `O=C(O)CSc1nc2ccccc2n1Cc1ccccc1`, the kinetic solubility was greater than 44.8 µg/mL. Under `O=C(NC1CC1)C1CCN(S(=O)(=O)c2ccc(Cl)cc2)CC1` stands 41.7 µg/mL (≈ 122 µM); under `COc1cccc(OC)c1C(=O)OCC(=O)NCc1ccco1`, greater than 47.9 µg/mL; under `CN(C)C(=O)c1cc(C(=O)Cc2ccccc2)c[nH]1`, 37.7 µg/mL (≈ 147 µM). On to `O=c1[nH]c(CSc2cccc[n+]2[O-])nc2ccccc12`, for which the solubility (kinetic) was greater than 42.8 µg/mL. `Cc1cc(C)c2sc(N)nc2c1` yielded a solubility (kinetic) of 25.1 µg/mL (≈ 141 µM).

In turn, `CCn1c(=O)c(C(=O)NCc2ccc(F)cc2)c(O)c2ccccc21` returned a solubility (kinetic) of less than 0.4 µg/mL.

For the molecule `Cc1cc(C(=O)Nc2ccccc2N2CCOCC2)no1`, the solubility (kinetic) turned out to be 19.2 µg/mL (≈ 66.8 µM). `CCC1CCCCN1C(=O)c1ccc([N+](=O)[O-])o1` (configuration not stated) came in with a solubility (kinetic) greater than 37.8 µg/mL. `CC(=O)c1ccc(S(=O)(=O)N2CCN(C(C)C(=O)N(C)Cc3ccccc3)CC2)cc1` (configuration not stated) displayed a kinetic solubility of 44 µg/mL (≈ 99.2 µM). `COc1ccccc1CNC(=O)COC(=O)c1cccs1` gave a solubility (kinetic) of 8.4 µg/mL (≈ 27.5 µM). As for `CC(C)CN(C(=O)CCNC(=O)c1ccc([N+](=O)[O-])cc1)C1CCS(=O)(=O)C1` (configuration not stated), the solubility (kinetic) came out at 57 µg/mL (≈ 139 µM). For `O=C(CNC(=O)c1ccc(Cl)cc1)NC(CO)c1ccccc1` (configuration not stated), the solubility (kinetic) was found to be 32.6 µg/mL (≈ 98 µM). For the molecule `C=CCNC(=S)NC(=O)c1csc([N+](=O)[O-])c1`, the solubility (kinetic) was found to be 38.5 µg/mL (≈ 142 µM). `CC1CN(C(=S)Nc2ccc(F)cc2F)CC(C)O1` (configuration not stated) registered a kinetic solubility greater than 43 µg/mL. `CCOC(=O)CNC(=O)C12CC3CC(C1)CC(c1ccc(C)cc1)(C3)C2` came in with a solubility (kinetic) of 3.9 µg/mL (≈ 11 µM). As to `Cc1csc(NC(=O)c2ccc(C)s2)n1`, the kinetic solubility was 25.9 µg/mL (≈ 109 µM).

The molecule `O=C(Cc1ccc([N+](=O)[O-])cc1)c1c(O)cc(O)cc1O` came in with a kinetic solubility greater than 43.4 µg/mL. For the molecule `COc1cccc(C(=O)NCC(=O)OC(C)C(=O)NC23CC4CC(CC(C4)C2)C3)c1` (configuration not stated), the solubility (kinetic) is greater than 62.2 µg/mL. Molecule `CN(Cc1cccs1)C(=O)c1ccc(Cl)c(S(=O)(=O)N2CCCCCC2)c1` displayed a solubility (kinetic) of 14.1 µg/mL (≈ 33 µM). For the molecule `Cc1nc2sc3c(c2c(=O)[nH]1)CCCCC3`, the solubility (kinetic) is 2 µg/mL (≈ 8.54 µM). Consider `Cc1ccc2c(CC(=O)NCC(C)(C)N3CCOCC3)coc2c1`, for which the solubility (kinetic) was greater than 49.6 µg/mL. Turning to `Cc1cccnc1NC(=O)C(C)N1C(=O)c2ccccc2C1=O` (configuration not stated), the kinetic solubility is greater than 46.4 µg/mL.

`Cc1ccnc(NC(=O)CNC(=O)c2ccc3c(c2)OCO3)c1` registered a kinetic solubility of 22.3 µg/mL (≈ 71.2 µM). The same measure for `Cc1ccccc1C(=O)NCC(=O)c1ccccc1`: greater than 38 µg/mL; for `CC(C)CC1(C)NC(=O)N(CC(=O)Nc2ccc(F)c(F)c2F)C1=O` (configuration not stated): 48.6 µg/mL (≈ 136 µM).

Turning to `Cc1ccc(C(=O)NCCNC(=O)c2ccc(C)o2)o1`, the kinetic solubility came out at 36.1 µg/mL (≈ 131 µM). As for `NC(=O)C1CCN(C(=O)c2ccc(Oc3cc(Cl)cc(Cl)c3)o2)CC1`, the kinetic solubility came out at 55.4 µg/mL (≈ 145 µM). In turn, `COc1ccc2nc(SCC(=O)NC3CCCC3)c(C)cc2c1` registered a solubility (kinetic) of less than 0.4 µg/mL. In turn, `Cc1cccc(-n2c(C)cc(/C=C3\NC(=O)NC3=O)c2C)c1` registered a kinetic solubility of 1.8 µg/mL (≈ 6.09 µM).

Molecule `Cc1ccsc1C(=O)OCC(=O)N(C)C1CCCCC1` returned a solubility (kinetic) greater than 44.3 µg/mL. `COCCNC(=S)Nc1ccccc1[N+](=O)[O-]` displayed a kinetic solubility greater than 38.3 µg/mL. Molecule `O=C1/C(=C/c2ccccc2)SC(=S)N1C1CCS(=O)(=O)C1` (configuration not stated) displayed a kinetic solubility of 0.9 µg/mL (≈ 2.65 µM). Under `Cl.Clc1ccc(CNCCCSc2ncccn2)cc1` stands greater than 49.5 µg/mL; under `O=S(=O)(NOCc1ccc(Cl)cc1)c1ccc(Cl)cc1`, less than 0.7 µg/mL; under `CCc1cccc(NC(=O)C(NC(=O)C2CCCCC2)C(C)C)c1` (configuration not stated), 0.6 µg/mL (≈ 1.82 µM). Turning to `COC(=O)c1cc(-c2cccs2)nc2ccccc12`, the kinetic solubility worked out at 9.6 µg/mL (≈ 35.6 µM). Under `O=C(COC(=O)c1ccc([N+](=O)[O-])o1)NCCc1ccccc1` stands greater than 47.7 µg/mL; under `Cc1cc(C(=O)Nc2cccc(NC(=O)c3ccco3)c2)ccc1[N+](=O)[O-]`, 0.5 µg/mL (≈ 1.37 µM). With `COc1ccc(NC(=O)CCCOc2ccc(Cl)c(C)c2)cc1S(=O)(=O)N1CCOCC1`, the kinetic solubility was determined as 15.3 µg/mL (≈ 31.7 µM). `Cc1c(Cl)ccc(S(=O)(=O)Nc2cccnc2)c1Cl` gave a kinetic solubility of 5.1 µg/mL (≈ 16.1 µM). Under `COCC1CCN(Cc2nc(-c3ccc(OC)cc3)no2)CC1` stands 41 µg/mL (≈ 129 µM); under `CCN(CC(=O)NCc1cccs1)C(=O)c1cc(=O)[nH]c2ccccc12`, greater than 55.4 µg/mL.

Turning to `C=CCNS(=O)(=O)c1cc2c3c(c1)CCN3C(=O)CC2`, the kinetic solubility is greater than 43.9 µg/mL.

As to `CC(C)(C)c1ccc(CN2C(=O)c3ccccc3S2(=O)=O)cc1`, the kinetic solubility stood at 1.2 µg/mL (≈ 3.64 µM). `CCC(Oc1cccc(Cl)c1)C(=O)N1CCCN(C)CC1` (configuration not stated): the kinetic solubility is greater than 46.6 µg/mL. For `COc1ccc(CCC(=O)Nc2ccc3c(c2)OCO3)cc1`, the kinetic solubility was 7.3 µg/mL (≈ 24.4 µM). The molecule `Cc1cnc(=O)[nH]c1SCc1ccccc1F` gave a solubility (kinetic) greater than 37.5 µg/mL.

Molecule `O=c1cnc2ccccc2n1Cc1ccc(Br)cc1` returned a kinetic solubility of 2.7 µg/mL (≈ 8.57 µM). Molecule `COC(=O)N1CCN(c2ccc(C)c(C)c2)CC1` registered a solubility (kinetic) of 32.1 µg/mL (≈ 129 µM). In the case of `N#CCCN(CCC#N)C(=S)NC1CC2C=CC1C2` (configuration not stated), the solubility (kinetic) was greater than 41.2 µg/mL.

For the origin of these results see PubChem BioAssay AID1996.
